Measured values as given in PubChem BioAssay (NCI).
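Where inhibition never reached the appropriate level, the endpoint shown equals the highest concentration tested. Otherwise, values were interpolated linearly from a five-concentration, 48-hour dose response in 96-well plates. Definition used: TGI = concentration required for complete inhibition of growth.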

Legend:
Experiment in all cases: DTP human tumour cell line panel, 48 h
RXF 393 renal = system: RXF 393 renal
HT29 colon = system: HT29 colon
KM12 colon = system: KM12 colon
786-0 renal = system: 786-0 renal
UACC-62 melanoma = system: UACC-62 melanoma
SW-620 colon = system: SW-620 colon
IGROV1 ovarian = system: IGROV1 ovarian
OVCAR-4 ovarian = system: OVCAR-4 ovarian
HOP-92 NSCLC = system: HOP-92 NSCLC
CAKI-1 renal = system: CAKI-1 renal
LXFL 529 NSCLC = system: LXFL 529 NSCLC
SNB-19 CNS = system: SNB-19 CNS
K-562 leukemia = system: K-562 leukemia
RPMI-8226 leukemia = system: RPMI-8226 leukemia
HCT-15 colon = system: HCT-15 colon
SR leukemia = system: SR leukemia
OVCAR-5 ovarian = system: OVCAR-5 ovarian
SF-268 CNS = system: SF-268 CNS

Structure (SMILES) | TGI (RXF 393 renal) [µM] | TGI (HT29 colon) [µM] | TGI (KM12 colon) [µM] | TGI (786-0 renal) [µM] | TGI (UACC-62 melanoma) [µM] | TGI (SW-620 colon) [µM] | TGI (IGROV1 ovarian) [µM] | TGI (OVCAR-4 ovarian) [µM] | TGI (HOP-92 NSCLC) [µM] | TGI (CAKI-1 renal) [µM] | TGI (LXFL 529 NSCLC) [µM] | TGI (SNB-19 CNS) [µM] | TGI (K-562 leukemia) [µM] | TGI (RPMI-8226 leukemia) [µM] | TGI (HCT-15 colon) [µM] | TGI (SR leukemia) [µM] | TGI (OVCAR-5 ovarian) [µM] | TGI (SF-268 CNS) [µM]
CC1=C(O)C(=O)C2C(=O)C1C(C)C2c1ccccc1 (configuration not stated) | > 100 | > 100 | > 100 | > 100 | > 100 | > 100 | > 100 | > 100 | > 100 | > 100 | > 100 | > 100 | > 100 | > 100 | > 100 | > 100 | > 100 | > 100
O=C([O-])c1ccccc1Nc1ccccc1C(=O)[O-].[OH3+].[Zn+2] | 42.7 | > 100 | > 100 | 57.7 | 39.9 | > 54.8 | 18.8 | 39.1 | 45.7 | 8.45 | 44.7 | 30.7 | 88.7 | > 100 | > 100 | > 63.7 | > 100 | 40.2
[N-]=[N+]=C1C(=O)C2CC3CC1CC2C3 (configuration not stated) | > 100 | > 100 | > 100 | > 100 | > 100 | > 100 | > 100 | > 100 | > 100 | > 100 | > 100 | > 100 | > 100 | > 100 | > 100 | > 100 | > 100 | > 100
N=C1c2ccccc2C(=O)c2c(NCCNCCO)ccc(O)c21 | 18 | > 100 | 33.1 | > 38.7 | 18.9 | 15.8 | 46.8 | 83.3 | > 71.2 | 26.5 | 27.8 | 84.8 | > 28.8 | 24.6 | > 63 | 5.32 | 84.7 | 14.2
